The text below walks through data of PMC3914206.

Test [1] addresses T1, panel of 442 kinases (Homo sapiens, UniProt P57078).
T1 construct: purchased KINOMEscan
T1 sequence (P57078 1-832): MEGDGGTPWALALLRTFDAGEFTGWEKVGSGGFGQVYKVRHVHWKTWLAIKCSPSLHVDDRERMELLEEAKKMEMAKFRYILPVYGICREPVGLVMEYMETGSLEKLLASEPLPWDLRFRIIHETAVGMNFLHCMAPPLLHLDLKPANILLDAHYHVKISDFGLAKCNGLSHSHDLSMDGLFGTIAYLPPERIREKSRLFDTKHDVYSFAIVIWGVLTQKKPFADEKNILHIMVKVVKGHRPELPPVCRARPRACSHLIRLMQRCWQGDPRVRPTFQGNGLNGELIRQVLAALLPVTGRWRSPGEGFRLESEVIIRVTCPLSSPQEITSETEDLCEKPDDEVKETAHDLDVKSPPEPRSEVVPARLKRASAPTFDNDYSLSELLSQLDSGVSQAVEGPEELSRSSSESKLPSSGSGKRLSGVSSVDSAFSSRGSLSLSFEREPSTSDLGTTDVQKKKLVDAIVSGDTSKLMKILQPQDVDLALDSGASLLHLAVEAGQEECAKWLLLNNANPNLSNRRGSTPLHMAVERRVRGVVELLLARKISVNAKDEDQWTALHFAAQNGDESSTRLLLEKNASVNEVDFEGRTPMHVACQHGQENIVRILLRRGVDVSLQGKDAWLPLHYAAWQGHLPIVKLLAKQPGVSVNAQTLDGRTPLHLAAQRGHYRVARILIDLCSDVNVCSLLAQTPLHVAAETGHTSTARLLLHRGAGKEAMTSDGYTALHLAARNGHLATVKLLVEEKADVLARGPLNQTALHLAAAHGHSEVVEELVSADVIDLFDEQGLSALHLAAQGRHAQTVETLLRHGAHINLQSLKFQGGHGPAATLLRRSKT
The format is binding. As to conditions: Compound Concentration 10 µM. The source says: (§1) We assessed the selectivity of members of this scaffold using the KINOMEscan methodology across a near comprehensive panel of 442 kinases [[18,27]].

The target of test [2] is T2, panel of 442 kinases (Homo sapiens, UniProt Q13233).
T2 construct: purchased KINOMEscan
T2 sequence (Q13233 whole entry): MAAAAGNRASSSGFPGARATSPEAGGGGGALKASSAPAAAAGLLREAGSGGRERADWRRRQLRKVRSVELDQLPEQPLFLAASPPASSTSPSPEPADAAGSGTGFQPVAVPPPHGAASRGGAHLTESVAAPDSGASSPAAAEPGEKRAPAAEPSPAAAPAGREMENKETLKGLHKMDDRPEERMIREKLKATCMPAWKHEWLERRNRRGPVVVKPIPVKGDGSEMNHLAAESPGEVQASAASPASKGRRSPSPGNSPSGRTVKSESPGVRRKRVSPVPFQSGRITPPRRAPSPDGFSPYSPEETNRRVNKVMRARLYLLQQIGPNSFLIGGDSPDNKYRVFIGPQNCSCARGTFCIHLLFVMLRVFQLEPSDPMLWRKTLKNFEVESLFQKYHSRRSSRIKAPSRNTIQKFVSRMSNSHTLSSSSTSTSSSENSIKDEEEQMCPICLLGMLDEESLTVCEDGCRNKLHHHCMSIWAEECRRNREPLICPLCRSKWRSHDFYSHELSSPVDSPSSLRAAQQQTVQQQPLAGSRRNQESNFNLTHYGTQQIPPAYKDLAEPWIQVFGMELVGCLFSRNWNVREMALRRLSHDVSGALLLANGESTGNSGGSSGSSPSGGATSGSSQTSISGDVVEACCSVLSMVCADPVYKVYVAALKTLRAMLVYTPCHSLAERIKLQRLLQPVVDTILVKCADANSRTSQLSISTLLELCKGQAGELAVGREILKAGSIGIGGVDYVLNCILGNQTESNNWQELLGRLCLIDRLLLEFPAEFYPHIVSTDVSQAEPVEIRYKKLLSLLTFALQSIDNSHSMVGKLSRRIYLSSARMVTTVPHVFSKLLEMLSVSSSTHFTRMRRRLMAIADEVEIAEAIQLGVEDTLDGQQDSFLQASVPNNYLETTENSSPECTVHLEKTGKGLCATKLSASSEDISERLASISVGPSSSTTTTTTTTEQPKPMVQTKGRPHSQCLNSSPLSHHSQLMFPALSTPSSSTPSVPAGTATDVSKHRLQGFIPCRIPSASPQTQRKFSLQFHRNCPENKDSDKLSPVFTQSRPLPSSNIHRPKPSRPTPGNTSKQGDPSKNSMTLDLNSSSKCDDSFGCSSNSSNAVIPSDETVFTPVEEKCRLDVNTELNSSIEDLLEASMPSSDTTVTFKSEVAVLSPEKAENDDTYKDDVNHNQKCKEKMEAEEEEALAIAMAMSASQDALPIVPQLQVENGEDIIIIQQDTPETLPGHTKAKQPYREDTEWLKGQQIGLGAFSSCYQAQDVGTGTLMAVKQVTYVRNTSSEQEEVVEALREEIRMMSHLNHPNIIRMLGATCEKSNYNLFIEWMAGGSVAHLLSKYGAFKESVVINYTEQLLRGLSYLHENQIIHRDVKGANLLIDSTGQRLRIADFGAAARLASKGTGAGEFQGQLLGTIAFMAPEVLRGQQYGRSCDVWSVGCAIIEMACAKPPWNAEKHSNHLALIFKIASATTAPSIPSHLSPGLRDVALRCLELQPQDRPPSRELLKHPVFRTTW
The format is binding. As to conditions: Compound Concentration 10 µM.
Excerpt: as §1

Turning to `CCOc1cc(C(=O)N2CCC(N3CCN(C)CC3)CC2)ccc1Nc1ncc2c(n1)N(C1CCCC1)c1ccccc1C(=O)N2C` [Compound 26], the “KINOMEscan: RIPK4” value at panel of 442 kinases [1] was determined as 100. Further, at panel of 442 kinases [2], the “KINOMEscan: MAP3K1” value was determined as 93.
`COc1cc(C(=O)N2CCC(N3CCN(C)CC3)CC2)ccc1Nc1ncc2c(n1)N(C)c1ccccc1C(=O)N2C` [15 (LRRK2-IN-1)]: the “KINOMEscan: RIPK4” value at panel of 442 kinases [1] is reported as 74. The “KINOMEscan: MAP3K1” value at panel of 442 kinases [2] is given as 95.
As to `COc1cc(C(=O)N2CCC(N3CCN(C)CC3)CC2)ccc1Nc1ncc2c(n1)N(C1CCCC1)c1ccccc1C(=O)N2C` [Compound 25, 11-cyclopentyl-2-((2-methoxy-4-(4-(4-methylpiperazin-1-yl)piperidine-1-carbonyl)phenyl)amino)-5-methyl-5H-benzo[e]pyrimido[5,4-b][1,4]diazepin-6(11H)-one], the “KINOMEscan: RIPK4” value on panel of 442 kinases [1] worked out at 100. The “KINOMEscan: MAP3K1” value at panel of 442 kinases [2] came to 100.
